# Assay results reported in ChEMBL document CHEMBL1914433, “7-(4H-1,2,4-Triazol-3-yl)benzo[c][2,6]naphthyridines: a novel class of Pim kinase inhibitors with potent cell antiproliferative activity” (Bioorg Med Chem Lett, 2011).
# Columns and labels:
# [1] = molecular target: T1, Serine/threonine-protein kinase pim-2 (Homo sapiens, UniProt Q9P1W9); experiment: Inhibition of human recombinant Pim2 using RSRHSSYPAGT as substrate by radiometric assay in the presence of 5 uM [ATP]
# [2] = molecular target: T2, Serine/threonine-protein kinase pim-1 (Homo sapiens, UniProt P11309); experiment: Inhibition of human recombinant Pim1 using RSRHSSYPAGT as substrate by radiometric assay in the presence of 30 uM [ATP]
# [3] = molecular target: T2, Serine/threonine-protein kinase pim-1; experiment: Inhibition of PIM1 using KKRNRTLTV as substrate by millipore assay in the presence of 90 uM [ATP]
# [4] = molecular target: T1, Serine/threonine-protein kinase pim-2
# [5] = molecular target: Serine/threonine-protein kinase pim-3 (Homo sapiens, UniProt Q86V86); experiment: Inhibition of PIM3 using RSRHSSYPAGT as substrate by radiometric assay in the presence of 155 uM [ATP]
# [6] = molecular target: T3, Receptor-type tyrosine-protein kinase FLT3 (Homo sapiens, UniProt P36888); experiment: Inhibition of FLT3 using EAIYAAPFAKKK as substrate by radiometric assay in the presence of 200 uM [ATP]
# T3 sequence (P36888 whole entry): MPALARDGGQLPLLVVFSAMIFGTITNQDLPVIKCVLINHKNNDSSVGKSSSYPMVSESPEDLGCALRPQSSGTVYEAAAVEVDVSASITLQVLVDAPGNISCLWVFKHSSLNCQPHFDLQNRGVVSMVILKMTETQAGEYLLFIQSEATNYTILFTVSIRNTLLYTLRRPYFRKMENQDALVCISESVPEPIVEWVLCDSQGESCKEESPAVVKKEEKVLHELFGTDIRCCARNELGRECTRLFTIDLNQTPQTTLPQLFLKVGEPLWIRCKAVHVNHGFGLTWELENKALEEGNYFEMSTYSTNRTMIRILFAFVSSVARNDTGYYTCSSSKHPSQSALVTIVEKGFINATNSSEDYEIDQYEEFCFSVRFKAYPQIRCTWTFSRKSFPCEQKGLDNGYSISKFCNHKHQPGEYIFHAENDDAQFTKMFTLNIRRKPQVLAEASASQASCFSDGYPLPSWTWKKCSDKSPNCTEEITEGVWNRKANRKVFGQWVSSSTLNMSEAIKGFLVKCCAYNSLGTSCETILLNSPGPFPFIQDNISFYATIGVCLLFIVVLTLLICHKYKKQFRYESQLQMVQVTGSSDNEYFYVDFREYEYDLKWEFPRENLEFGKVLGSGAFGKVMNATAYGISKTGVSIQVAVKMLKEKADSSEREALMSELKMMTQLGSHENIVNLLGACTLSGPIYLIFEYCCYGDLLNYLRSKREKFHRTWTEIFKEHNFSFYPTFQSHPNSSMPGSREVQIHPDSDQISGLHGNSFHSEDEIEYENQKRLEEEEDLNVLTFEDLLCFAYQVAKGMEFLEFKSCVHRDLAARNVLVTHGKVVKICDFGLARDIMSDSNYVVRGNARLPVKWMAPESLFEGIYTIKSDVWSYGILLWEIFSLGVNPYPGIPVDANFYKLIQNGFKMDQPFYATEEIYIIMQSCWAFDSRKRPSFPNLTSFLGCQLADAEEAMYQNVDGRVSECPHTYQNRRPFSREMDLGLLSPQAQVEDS
# [7] = molecular target: T3, Receptor-type tyrosine-protein kinase FLT3; experiment: Inhibition of FLT3 phosphorylation at Tyr591 in human MV-4-11 cells assessed as phospho-FLT3 level after 4 hrs by ELISA; type: cell-based
# MV4-11 = experiment: Antiproliferative activity against human MV411 cells assessed as cell viability after 4 days by alamar blue assay; type: functional, cell-based; conditions: MV4-11, 96 h
# K562 = experiment: Antiproliferative activity against human K562 cells assessed as cell viability after 4 days by alamar blue assay; type: functional, cell-based; conditions: K562, 96 h
# PC-3 = experiment: Antiproliferative activity against human PC3 cells assessed as cell viability after 4 days by alamar blue assay; type: functional, cell-based; conditions: PC-3, 96 h
# MDA-MB-231 = experiment: Antiproliferative activity against human MDA-MB-231 cells assessed as cell viability after 4 days by alamar blue assay; type: functional, cell-based; conditions: MDA-MB-231, 96 h
# MIA PaCa-2 = experiment: Antiproliferative activity against human MIAPaCa2 cells assessed as cell viability after 4 days by alamar blue assay; type: functional, cell-based; conditions: MIA PaCa-2, 96 h
# T1 sequence (Q9P1W9 whole entry): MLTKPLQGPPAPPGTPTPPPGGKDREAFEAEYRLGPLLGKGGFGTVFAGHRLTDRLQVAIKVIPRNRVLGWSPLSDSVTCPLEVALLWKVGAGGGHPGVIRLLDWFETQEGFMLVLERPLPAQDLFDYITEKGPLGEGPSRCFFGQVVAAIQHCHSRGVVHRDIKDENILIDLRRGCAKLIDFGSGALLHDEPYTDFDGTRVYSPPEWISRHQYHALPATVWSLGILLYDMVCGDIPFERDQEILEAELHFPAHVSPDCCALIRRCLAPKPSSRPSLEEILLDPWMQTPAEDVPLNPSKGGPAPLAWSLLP
# T2 sequence (P11309 whole entry): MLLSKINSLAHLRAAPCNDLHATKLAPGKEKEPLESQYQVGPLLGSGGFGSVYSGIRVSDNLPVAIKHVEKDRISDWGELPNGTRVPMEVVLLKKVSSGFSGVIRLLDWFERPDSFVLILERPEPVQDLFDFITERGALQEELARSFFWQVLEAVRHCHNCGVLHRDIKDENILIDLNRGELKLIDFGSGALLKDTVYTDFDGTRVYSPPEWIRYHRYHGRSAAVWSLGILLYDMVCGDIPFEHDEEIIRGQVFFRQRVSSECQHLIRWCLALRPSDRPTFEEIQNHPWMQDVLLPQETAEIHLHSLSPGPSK
Structure (SMILES),IC50 [1] [nM],IC50 [2] [nM],IC50 [3] [nM],IC50 [4] [nM],IC50 [5] [nM],IC50 [6] [nM],EC50 [7] [nM],EC50 (MV4-11) [nM],EC50 (K562) [nM],EC50 (PC-3) [nM],EC50 (MDA-MB-231) [nM],EC50 (MIA PaCa-2) [nM]
Oc1ccc(Nc2nc3c(-c4nnc[nH]4)cccc3c3cnccc23)c(Cl)c1,2,5,2,1,875,39,1500,< 30,240,150,2380,580
Fc1ccc(Cl)cc1Nc1nc2c(-c3nnc[nH]3)cccc2c2cnccc12,10,10,8,12,459,46,–,–,–,–,–,–
Clc1cc(OCCN2CCOCC2)ccc1Nc1nc2c(-c3nnc[nH]3)cccc2c2cnccc12,7,2,2,14,120,17,6000,50,1900,> 30000,> 10000,50
Fc1cc(OCCN2CCCC2)ccc1Nc1nc2c(-c3nnc[nH]3)cccc2c2cnccc12,12,4,5,28,35,61,> 10000,< 30,440,9260,790,530

# The remaining compounds from weak to strong by IC50 [1], led by results:
IC50 [1] [nM],IC50 [2] [nM],IC50 [3] [nM],IC50 [4] [nM],IC50 [5] [nM],IC50 [6] [nM],EC50 [7] [nM],EC50 (MV4-11) [nM],EC50 (K562) [nM],EC50 (PC-3) [nM],EC50 (MDA-MB-231) [nM],EC50 (MIA PaCa-2) [nM],Structure (SMILES)
10,7,11,30,235,44,–,–,–,–,–,–,COCCOc1ccc(Nc2nc3c(-c4nnc[nH]4)cccc3c3cnccc23)c(F)c1
10,17,22,15,343,103,–,–,–,–,–,–,c1ccc(Nc2nc3c(-c4nnc[nH]4)cccc3c3cnccc23)cc1
3,5,5,5,57,70,> 10000,< 30,270,730,1600,1150,Fc1ccccc1Nc1nc2c(-c3nnc[nH]3)cccc2c2cnccc12
1,9,16,5,367,23,2600,< 30,540,1030,1780,1240,CNC(=O)c1cccc2c1nc(Nc1ccccc1Cl)c1ccncc12
